Laboratory results: PubChem BioAssay (NCI)
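Method: 48-hour compound exposure of cells in 96-well plates, five concentrations, linear interpolation of endpoints. Abbreviation: GI50, concentration required for 50% inhibition of growth. TGI marks complete inhibition of growth.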

Columns and labels:
Test in all cases: inhibition of tumour cell growth, NCI panel, 48 h; in the data active means GI50 below about 0.43 µM; inactive means the rest
786-0 renal = test system: 786-0 renal
A498 renal = test system: A498 renal
A549 NSCLC = test system: A549 NSCLC
ACHN renal = test system: ACHN renal
BT-549 breast = test system: BT-549 breast
CAKI-1 renal = test system: CAKI-1 renal
CCRF-CEM leukemia = test system: CCRF-CEM leukemia
COLO 205 colon = test system: COLO 205 colon
DU-145 prostate = test system: DU-145 prostate
EKVX NSCLC = test system: EKVX NSCLC
HCC-2998 colon = test system: HCC-2998 colon
HCT-116 colon = test system: HCT-116 colon
HCT-15 colon = test system: HCT-15 colon
HL-60(TB) leukemia = test system: HL-60(TB) leukemia
HOP-62 NSCLC = test system: HOP-62 NSCLC
HOP-92 NSCLC = test system: HOP-92 NSCLC
HS 578T breast = test system: HS 578T breast
HT29 colon = test system: HT29 colon
IGROV1 ovarian = test system: IGROV1 ovarian
K-562 leukemia = test system: K-562 leukemia
KM12 colon = test system: KM12 colon
LOX IMVI melanoma = test system: LOX IMVI melanoma
M14 melanoma = test system: M14 melanoma
MCF7 breast = test system: MCF7 breast
MDA-MB-231 breast = test system: MDA-MB-231 breast
MDA-MB-435 = test system: MDA-MB-435
MOLT-4 leukemia = test system: MOLT-4 leukemia
NCI-H226 lung = test system: NCI-H226 lung
NCI-H23 lung = test system: NCI-H23 lung
NCI-H460 lung = test system: NCI-H460 lung
NCI-H522 lung = test system: NCI-H522 lung
NCI/ADR-RES ovarian = test system: NCI/ADR-RES ovarian
OVCAR-3 ovarian = test system: OVCAR-3 ovarian
OVCAR-4 ovarian = test system: OVCAR-4 ovarian
OVCAR-5 ovarian = test system: OVCAR-5 ovarian
OVCAR-8 ovarian = test system: OVCAR-8 ovarian
PC-3 prostate = test system: PC-3 prostate
RPMI-8226 leukemia = test system: RPMI-8226 leukemia
SF-268 CNS = test system: SF-268 CNS
SF-295 CNS = test system: SF-295 CNS
SK-MEL-2 melanoma = test system: SK-MEL-2 melanoma
SK-MEL-28 melanoma = test system: SK-MEL-28 melanoma
SK-MEL-5 melanoma = test system: SK-MEL-5 melanoma
SN12C renal = test system: SN12C renal
SNB-19 CNS = test system: SNB-19 CNS
SNB-75 CNS = test system: SNB-75 CNS
SR leukemia = test system: SR leukemia
SW-620 colon = test system: SW-620 colon
TK-10 renal = test system: TK-10 renal
U251 CNS = test system: U251 CNS
UACC-257 melanoma = test system: UACC-257 melanoma
UACC-62 melanoma = test system: UACC-62 melanoma
UO-31 renal = test system: UO-31 renal

COc1ccc(/C=C(/C(=O)N2CCCCC2)c2cc(OC)c(OC)c(OC)c2)cc1
4.1 µM: TGI (HL-60(TB) leukemia)
1.52 µM: TGI (OVCAR-3 ovarian)
inactive: GI50 (A498 renal) 0.682 µM | GI50 (A549 NSCLC) 1.5 µM | GI50 (ACHN renal) 0.713 µM | GI50 (CAKI-1 renal) 0.492 µM | GI50 (CCRF-CEM leukemia) 1.17 µM | GI50 (COLO 205 colon) 0.664 µM | GI50 (DU-145 prostate) 1.5 µM | GI50 (EKVX NSCLC) 3.4 µM | GI50 (HCC-2998 colon) 2.82 µM | GI50 (HCT-15 colon) 0.579 µM | GI50 (HL-60(TB) leukemia) 0.441 µM | GI50 (HOP-62 NSCLC) 0.911 µM | GI50 (HOP-92 NSCLC) 12.4 µM | GI50 (HS 578T breast) 0.966 µM | GI50 (IGROV1 ovarian) 0.699 µM | GI50 (K-562 leukemia) 0.452 µM | GI50 (KM12 colon) 0.482 µM | GI50 (LOX IMVI melanoma) 1.04 µM | GI50 (M14 melanoma) 0.478 µM | GI50 (MCF7 breast) 0.454 µM | GI50 (MDA-MB-231 breast) 4.54 µM | GI50 (MOLT-4 leukemia) 2.06 µM | GI50 (NCI-H226 lung) 3.4 µM | GI50 (NCI-H23 lung) 3.88 µM | GI50 (NCI-H460 lung) 0.497 µM | GI50 (NCI-H522 lung) 1.7 µM | GI50 (NCI/ADR-RES ovarian) 1.15 µM | GI50 (OVCAR-4 ovarian) 18 µM | GI50 (OVCAR-5 ovarian) 5.26 µM | GI50 (OVCAR-8 ovarian) 6.12 µM | GI50 (PC-3 prostate) 0.527 µM | GI50 (RPMI-8226 leukemia) 4.13 µM | GI50 (SF-268 CNS) 1.79 µM | GI50 (SK-MEL-2 melanoma) 0.967 µM | GI50 (SK-MEL-28 melanoma) 8.89 µM | GI50 (SK-MEL-5 melanoma) 0.753 µM | GI50 (SN12C renal) 4.52 µM | GI50 (SNB-19 CNS) 0.946 µM | GI50 (SNB-75 CNS) 0.483 µM | GI50 (SR leukemia) 0.593 µM | GI50 (SW-620 colon) 0.506 µM | GI50 (TK-10 renal) > 100 µM | GI50 (U251 CNS) 1.48 µM | GI50 (UACC-257 melanoma) > 100 µM | GI50 (UACC-62 melanoma) 0.44 µM | GI50 (UO-31 renal) 4.76 µM
active: GI50 (786-0 renal) 0.404 µM | GI50 (BT-549 breast) 0.417 µM | GI50 (HCT-116 colon) 0.379 µM | GI50 (HT29 colon) 0.412 µM | GI50 (MDA-MB-435) 0.257 µM | GI50 (OVCAR-3 ovarian) 0.325 µM | GI50 (SF-295 CNS) 0.422 µM
71.7 µM: TGI (A498 renal)
29.9 µM: TGI (BT-549 breast)
43.9 µM: TGI (SK-MEL-5 melanoma)
> 100 µM: TGI (786-0 renal) | TGI (A549 NSCLC) | TGI (ACHN renal) | TGI (CAKI-1 renal) | TGI (CCRF-CEM leukemia) | TGI (EKVX NSCLC) | TGI (HCC-2998 colon) | TGI (HCT-116 colon) | TGI (HCT-15 colon) | TGI (HOP-62 NSCLC) | TGI (HOP-92 NSCLC) | TGI (HS 578T breast) | TGI (HT29 colon) | TGI (IGROV1 ovarian) | TGI (K-562 leukemia) | TGI (KM12 colon) | TGI (LOX IMVI melanoma) | TGI (M14 melanoma) | TGI (MCF7 breast) | TGI (MDA-MB-231 breast) | TGI (MOLT-4 leukemia) | TGI (NCI-H226 lung) | TGI (NCI-H23 lung) | TGI (NCI-H460 lung) | TGI (NCI-H522 lung) | TGI (NCI/ADR-RES ovarian) | TGI (OVCAR-4 ovarian) | TGI (OVCAR-5 ovarian) | TGI (OVCAR-8 ovarian) | TGI (PC-3 prostate) | TGI (RPMI-8226 leukemia) | TGI (SF-268 CNS) | TGI (SF-295 CNS) | TGI (SK-MEL-2 melanoma) | TGI (SK-MEL-28 melanoma) | TGI (SN12C renal) | TGI (SNB-19 CNS) | TGI (SNB-75 CNS) | TGI (SR leukemia) | TGI (SW-620 colon) | TGI (TK-10 renal) | TGI (U251 CNS) | TGI (UACC-257 melanoma) | TGI (UACC-62 melanoma) | TGI (UO-31 renal)
4.9 µM: TGI (COLO 205 colon)
17.3 µM: TGI (DU-145 prostate)
0.935 µM: TGI (MDA-MB-435)
